Measurements taken from patent publication US20240285653A1, “COMPOSITIONS AND METHODS FOR TREATMENT AND PREVENTION OF DISEASES UTILIZING TIRILAZAD SALTS” (priority 2022, published 2024).
Like-named read-outs stand apart in the source and are kept apart here.

System: explant tissue from the dermoepidermal junction of the hoof
Type: cell-based
Method: An in vitro study was conducted to analyze the protective effects of tirilazad mesylate on cellular degeneration as a result of Bothrops alternatus snake venom as a model for laminitis. Explant tissue samples were obtained from the dermoepidermal junction of the hoof of the right forelimb under nervous system block without the need for euthanasia.
Under sterile conditions, laminar cuts (mini-explants) were made of each explant and the tissue washed with physiological solution. The mini-explants were pre-incubated for 5 hours with tirilazad and then for 24 hours with Bothrops venom. Culture medium was as follows: Dulbecco's […] (DMEM, GIBCO-Invitrogen) with 10% heat-inactivated fetal bovine serum (FBS, GIBCO-Invitrogen), L-Glutamine (29.2 mg/mL), Penicillin (10,000 units/mL), and Streptomycin (10,000 μg/mL, GIBCO-Invitrogen) as antibiotics.
Histopathology: Tissues were processed with classical histological techniques, e.g., cutting by microtome (Minot) and stained with hematoxylin-eosin (H-E) and Periodic Acid Schiff (PAS) stains.

[1] = Tirilazad 1 μM (5 hours pre-incubation) + venom 75 μg/ml (24 hours), listed as tirilazad
[2] = Tirilazad 1 μM alone, no venom, listed as tirilazad
[3] = Tirilazad 3 μM (5 hours pre-incubation) + venom 75 μg/ml (24 hours)
[4] = Tirilazad 3 μM alone, no venom, listed as tirilazad
[5] = Tirilazad 10 μM (5 hours pre-incubation) + venom 75 μg/ml (24 hours), listed as tirilazad
[6] = Tirilazad 10 μM alone, no venom
[7] = Tirilazad 10 μM alone, no venom, listed as tirilazad
[8] = Tirilazad 20 μM (5 hours pre-incubation) + venom 75 μg/ml (24 hours)
[9] = Tirilazad 20 μM alone, no venom

C[C@@H]1C[C@H]2[C@@H]3CCC4=CC(=O)C=C[C@]4(C)C3=CC[C@]2(C)[C@H]1C(=O)CN1CCN(c2cc(N3CCCC3)nc(N3CCCC3)n2)CC1 [Tirilazad, 16α-methyl-21-[4-[2,6-bis(1-pyrrolidinyl)-4-pyrimidinyl]-1-piperazinyl]pregna-1,4,9(11)-triene-3,20-dione]
Separation of Basement Membrane (Tirilazad 1 μM (5 hours pre-incubation) + venom 75 μg/ml (24 hours)): No
Cell Nuclei [1]: intense presence of altered epidermal cells
Pyknosis or Karyopyknosis [1]: nuclear pyknosis
Separation of Basement Membrane [1]: did not show separation of the basement membrane
Pyknosis or Karyopyknosis (Tirilazad 1 μM alone, no venom): No
Separation of Basement Membrane (Tirilazad 1 μM alone, no venom): No
Cell Nuclei [2]: epidermal cells were normal and showed preserved cytoplasmic and nuclear structure
Separation of Basement Membrane [2]: did not show separation of the basement membrane
Cell Nuclei [3]: intense presence of altered epidermal cells
Pyknosis or Karyopyknosis [3]: nuclear pyknosis predominating
Separation of Basement Membrane [3]: slight separation of the basement membrane
Separation of Basement Membrane (Tirilazad 3 μM alone, no venom): No
Cell Nuclei [4]: slight epidermal cytoplasmic and nuclear alteration
Separation of Basement Membrane [4]: did not show separation of the basement membrane
Separation of Basement Membrane (Tirilazad 10 μM (5 hours pre-incubation) + venom 75 μg/ml (24 hours)): No
Cell Nuclei [5]: Moderate presence of altered epidermal cells
Pyknosis or Karyopyknosis [5]: moderate nuclear pyknosis
Separation of Basement Membrane [5]: did not show separation of the basement membrane
Pyknosis or Karyopyknosis [6]: No
Separation of Basement Membrane [6]: No
Cell Nuclei [7]: epidermal cells were normal and showed preserved cytoplasmic and nuclear structure
Separation of Basement Membrane [7]: did not show separation of the basement membrane
Cell Nuclei [8]: intense presence of altered epidermal cells
Pyknosis or Karyopyknosis [8]: intense nuclear pyknosis
Separation of Basement Membrane [8]: intense separation of the basement membrane
Cell Nuclei [9]: epidermal cells were normal and showed preserved cytoplasmic and nuclear structure
Pyknosis or Karyopyknosis [9]: No
Separation of Basement Membrane [9]: intense separation of the basement membrane
Effect on cellular structure in hoof tissue (overall conclusion) (summary of the explant study): provides a protective and/or therapeutic effect on cellular structure in hoof tissue
